The record followed here is patent publication US8765447B2, “Fungal strain Beauveria sp. MTCC 5184 and a process for the preparation of enzymes therefrom” (Council of Scientific and Industrial Research, priority 2010, dated 2014).

The test system of assay [1] is purified protease of Beauveria sp MTCC 5184. Conditions: 3 M NaCl (FIG. 14), 28° C., 30 min. As to the method:
Samples were removed at regular intervals and residual activity was measured at 50° C., pH 9.0 and expressed as percentage of activity without NaCl taken as 100%.

The test system of assay [2] is protease of Beauveria sp MTCC 5184. As to the kind of experiment: Effect of inhibitors on protease activity. The format is biochemical. How it is done:
The protease activity has been expressed in terms of tyrosine equivalents. The reaction mixture contained an aliquot of suitably diluted enzyme solution and 10 mg Hammerstein casein in 0.1 M sodium carbonate buffer pH 9.0 in a total volume of 2 ml. After incubation at 50° C. for 10 min, the reaction was terminated by the addition of 3 ml of 5% trichloroacetic acid (acidified with concentrated hydrochloric acid). The precipitate formed was filtered through Whatman No. 1 filter paper after standing for 30 min at room temperature. The absorbance of trichloroacetic acid soluble fraction was measured at 280 nm. Micrograms of tyrosine produced was calculated from a pre-calibrated graph of absorbance at 280 nm against tyrosine concentration and the units are expressed as […] of tyrosine released per minute under assay conditions.
This example illustrates the effect of inhibitors on protease activity of Beauveria sp MTCC 5184. Following inhibitors were studied: phenylmethylsulfonyl fluoride (PMSF), ethylene-diaminetetraacetic acid (EDTA), iodoacetic acid, N-tosyl-L-phenylalanine chloromethyl ketone (TPCK), N-tosyl-L-lysine chloromethyl ketone (TLCK), Dimethylsulphoxide (DMSO) and Benzamidine. […] Protease without inhibitor served as control.

Assay [3] concerns purified protease of Beauveria sp MTCC 5184. In words: Stability of purified protease in organic solvents at 50° C. Type of assay: biochemical. The settings on record: 25% (v/v) solvent, pH 7. The text has this: Following organic solvents were used: acetone, 1-butanol, benzene, chloroform, dimethylsulphoxide, ethanol, hexane, isopropanol and methanol. […] Samples were removed at different time intervals and residual activity was estimated.

Assay [4] has as its system protease of Beauveria sp MTCC 5184. In words: Stability of protease at 37° C. in water miscible solvents. The format is biochemical. Conditions: water miscible solvents (FIG. 10). How it is done:
FIG. 10: Stability of protease at 37° C. in presence of water miscible solvents.

The subject of assay [5] is purified protease of Beauveria sp MTCC 5184. As to the kind of experiment: Effect of urea on protease activity. Conditions: 6M urea, 28° C., 2 h. The format is biochemical. How it is done:
This example illustrates the effect of urea on protease activity of Beauveria sp MTCC 5184. […] In presence of 6M urea, protease was stable up to 2 h and retained more than 85% of initial activity (FIG. 13).

Assay [6] shares this test system. As to the kind of experiment: Effect of β-mercapto ethanol and Triton X-100 on protease activity. Type of assay: biochemical. The settings on record: 30 min. The text has this:
This example illustrates the effect of β-mercapto ethanol (BME) and Triton X-100 on protease activity of Beauveria sp MTCC 5184.

[7] abbreviates: inhibitor 5 mM, pre-incubated 1 h, pH 8.0.

Consider `[Cl-].[Na+]` [NaCl], for which, in assay [1], the stability came to 100%.
`O=C(O)CI` [Iodoacetate, iodoacetic acid]: the “Inhibition (%)” value in assay [2] (pH 8) was 0.30%.
Regarding `N=C(N)c1ccccc1` [Benzamidine], the “Inhibition (%)” value in assay [2] (setting [7]) was determined as 3.62%.
`C[S+](C)[O-]` [DMSO, Dimethylsulphoxide]: the “Inhibition (%)” value in assay [2] (inhibitor 10%, pre-incubated 1 h, pH 8.0) stood at 0.04%. Further, the “Residual Activity (%)” value in assay [3] (0 h) turned out to be 100.00%; in assay [3] (1 h), 87.52%.
Take `CO` [Methanol, methanol]: the “Residual Activity (%)” value in assay [3] (0 h) is reported as 100.00%; in assay [3] (1 h) it was 93.49%; in assay [3] (2 h) it was 46.09%. In addition, in assay [4], the initial activity retained was above 80%.
For `O=C(O)CN(CCN(CC(=O)O)CC(=O)O)CC(=O)O` [EDTA, ethylene-diaminetetraacetic acid], the “Inhibition (%)” value in assay [2] (inhibitor 20 mM, pre-incubated 1 h, pH 8.0) worked out at 1.51%.
Regarding `NC(N)=O` [urea], the initial activity retained result in assay [5] was “more than 85%”.
Take “N-tosyl-L-phenylalanine chloromethyl ketone [TPCK]”: the “Inhibition (%)” value in assay [2] (setting [7]) worked out at 7.33%.
As for `OCCS` [BME, β-mercapto ethanol], in assay [6] (10% BME, 28° C.), the activity retained entry was “retained full activity”.
With “N-tosyl-L-lysine chloromethyl ketone [TLCK]”, the “Inhibition (%)” value in assay [2] (setting [7]) was 12.12%.
In the case of Triton X-100, the activity retained in assay [6] (2% Triton X-100, 28° C.) was determined as 80%.
